Assay [1] has as its target T1, JAK3 (Homo sapiens, UniProt P52333).
T1 sequence (P52333 1-1124): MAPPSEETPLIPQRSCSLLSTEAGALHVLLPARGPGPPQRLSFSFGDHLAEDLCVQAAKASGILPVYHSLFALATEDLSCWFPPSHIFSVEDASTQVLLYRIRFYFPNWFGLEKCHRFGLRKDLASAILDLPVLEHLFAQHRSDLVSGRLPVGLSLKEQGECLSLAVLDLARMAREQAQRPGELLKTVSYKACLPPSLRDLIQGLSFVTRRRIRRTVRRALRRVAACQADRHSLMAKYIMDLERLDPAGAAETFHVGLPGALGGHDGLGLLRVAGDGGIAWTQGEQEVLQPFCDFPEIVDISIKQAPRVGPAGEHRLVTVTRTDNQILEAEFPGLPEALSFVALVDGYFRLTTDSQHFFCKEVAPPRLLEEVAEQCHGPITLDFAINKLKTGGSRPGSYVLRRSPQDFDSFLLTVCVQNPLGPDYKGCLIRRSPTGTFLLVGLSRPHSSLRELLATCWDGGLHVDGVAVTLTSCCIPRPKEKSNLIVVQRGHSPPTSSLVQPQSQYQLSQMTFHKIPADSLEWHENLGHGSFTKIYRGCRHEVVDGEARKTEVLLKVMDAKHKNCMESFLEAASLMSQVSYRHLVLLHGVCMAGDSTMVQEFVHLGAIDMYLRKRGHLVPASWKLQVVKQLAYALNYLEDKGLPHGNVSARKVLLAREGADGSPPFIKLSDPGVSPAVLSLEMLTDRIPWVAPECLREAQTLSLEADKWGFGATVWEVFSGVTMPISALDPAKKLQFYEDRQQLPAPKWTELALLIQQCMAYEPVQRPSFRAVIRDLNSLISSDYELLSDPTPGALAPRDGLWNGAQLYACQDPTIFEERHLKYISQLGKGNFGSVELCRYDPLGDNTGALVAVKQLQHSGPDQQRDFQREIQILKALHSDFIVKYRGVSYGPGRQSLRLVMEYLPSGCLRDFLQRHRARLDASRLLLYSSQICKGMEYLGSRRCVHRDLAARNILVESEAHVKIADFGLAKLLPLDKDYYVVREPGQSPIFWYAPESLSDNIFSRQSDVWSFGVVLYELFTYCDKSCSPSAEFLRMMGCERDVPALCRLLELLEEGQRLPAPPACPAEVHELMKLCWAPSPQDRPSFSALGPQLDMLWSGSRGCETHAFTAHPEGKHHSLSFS
Put plainly: JAK kinase assay, JAK3 enzyme. It counts as biochemical.

Assay [2] deals with ROCK1 (Homo sapiens, UniProt Q13464). Put plainly: ROCK kinase inhibition assay, ROCK1 enzyme.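 Further: kinase reaction with 0.5 µM final ATP, 75 min at room temperature, remaining ATP read by luminescence, percent of DMSO-only control minus background.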 It counts as biochemical.
Chain of ROCK1 (Q13464 whole entry, species assumed): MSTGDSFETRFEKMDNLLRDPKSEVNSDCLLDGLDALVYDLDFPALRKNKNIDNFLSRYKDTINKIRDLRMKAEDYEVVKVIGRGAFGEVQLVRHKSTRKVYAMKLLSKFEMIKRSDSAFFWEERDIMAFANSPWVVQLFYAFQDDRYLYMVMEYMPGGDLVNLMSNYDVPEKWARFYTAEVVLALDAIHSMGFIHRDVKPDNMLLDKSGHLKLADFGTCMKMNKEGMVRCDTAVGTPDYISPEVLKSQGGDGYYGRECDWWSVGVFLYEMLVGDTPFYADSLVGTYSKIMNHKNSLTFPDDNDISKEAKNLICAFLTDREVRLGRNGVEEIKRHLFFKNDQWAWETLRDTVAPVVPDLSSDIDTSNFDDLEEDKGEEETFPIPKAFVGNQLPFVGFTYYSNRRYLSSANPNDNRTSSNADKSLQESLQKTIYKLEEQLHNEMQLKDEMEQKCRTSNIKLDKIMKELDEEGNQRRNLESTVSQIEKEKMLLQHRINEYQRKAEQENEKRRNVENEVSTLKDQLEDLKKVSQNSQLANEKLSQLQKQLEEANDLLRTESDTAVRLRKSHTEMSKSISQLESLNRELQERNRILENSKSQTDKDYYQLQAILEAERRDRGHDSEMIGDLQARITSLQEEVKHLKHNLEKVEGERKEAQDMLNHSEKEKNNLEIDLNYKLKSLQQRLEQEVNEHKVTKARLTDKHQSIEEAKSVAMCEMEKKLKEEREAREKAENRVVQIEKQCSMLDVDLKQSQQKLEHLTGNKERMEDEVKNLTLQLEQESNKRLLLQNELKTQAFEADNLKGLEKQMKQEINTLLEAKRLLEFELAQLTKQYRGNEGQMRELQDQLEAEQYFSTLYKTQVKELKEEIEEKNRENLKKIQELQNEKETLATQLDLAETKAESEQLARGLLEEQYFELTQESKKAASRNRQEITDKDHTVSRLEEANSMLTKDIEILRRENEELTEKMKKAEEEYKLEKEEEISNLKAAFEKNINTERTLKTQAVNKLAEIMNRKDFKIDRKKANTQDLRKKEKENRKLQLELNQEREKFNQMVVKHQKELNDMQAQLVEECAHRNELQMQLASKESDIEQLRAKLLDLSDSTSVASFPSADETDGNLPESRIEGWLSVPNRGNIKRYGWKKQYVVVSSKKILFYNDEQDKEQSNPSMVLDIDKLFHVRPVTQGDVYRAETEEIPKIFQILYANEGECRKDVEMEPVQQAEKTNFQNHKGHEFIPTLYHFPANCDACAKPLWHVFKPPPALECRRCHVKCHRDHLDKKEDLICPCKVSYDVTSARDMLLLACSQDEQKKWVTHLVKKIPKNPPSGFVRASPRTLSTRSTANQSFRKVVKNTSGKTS
Assay [3] has as its target ROCK2 (Homo sapiens, UniProt O75116). Put plainly: biochemical.
Assay [4] addresses JAK2 (Homo sapiens, UniProt O60674). Put plainly: JAK kinase assay, JAK2 enzyme.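 Further: JAK2 kinase reaction run 75 min at room temperature, leftover ATP read by Kinase-Glo luminescence, 11-point dilution series in 2.5% DMSO, percent of inhibitor-free DMSO control.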 It counts as biochemical.
The target in assay [5] is Rho Kinase. Put plainly: ROCK kinase inhibition assay (Rho Kinase Activity, isoform not given). Type of assay: biochemical. To be noted: Table 15, mostly given as ranges. The method, then:
All compounds were initially prepared as 10 mM stocks in anhydrous dimethylsulfoxide (DMSO). A 20 μl aliquot of the 10 mM solutions was transferred to individual wells in column 1 of a 96-well polypropylene microtiter plate (Corning #3363) and diluted with DMSO to give a final compound concentration of 4 mM. Test compounds were then serially diluted 1:5 in DMSO for an 11-point concentration response and further diluted in the assay buffer bringing all compound concentrations to a final range of 100 μM to […] in 2.5% DMSO. The assay was performed in white 96-well, flat-bottom, half-area, non-binding assay plate (Corning #3642) in assay buffer consisting of 20 mM HEPES (pH 7.5), 10 mM MgCl2*6H2O, 100 μM sodium orthovanadate, 0.05% CHAPS and 0.1% bovine serum albumin. A 10 μL aliquot of compound from each well of the intermediate dilution plate and 20 μL of a 2× substrate/enzyme solution containing acceptor substrate (800 nM RSK2 peptide […] (SEQ ID NO: 1)), ROCK2 enzyme (10 nM), or ROCK1 enzyme, and 1,4-Dithiothreitol (DTT, 2 uM) were added to all wells. The reaction was initiated by the addition of 10 μL of 4× stock solution ATP (2 μM). Reactions were thoroughly mixed manually, covered and allowed to incubate at room temperature for 75 min. Protein kinase activity was quantitated using Promega's KINASE-GLO™ luminescent Kinase Assay Kit according to the manufacturer's directions. ATP concentrations remaining in Test wells following the termination of the enzymatic reaction were compared against control wells containing equivalent amounts of DMSO containing no inhibitor (CTRL). […] Percent of Control (POC) values were determined for each concentration of compound tested according to the equation: POC=((Test well value−BKG)/(CTRL−BKG))*100
IC50 values were converted to K; […]

SMILES strings stand for the structures. Structures can show the parent of a compound that is named as a salt. Where two headings read alike, the source gives them in different places.

Chain of ROCK2 (O75116 whole entry, species assumed): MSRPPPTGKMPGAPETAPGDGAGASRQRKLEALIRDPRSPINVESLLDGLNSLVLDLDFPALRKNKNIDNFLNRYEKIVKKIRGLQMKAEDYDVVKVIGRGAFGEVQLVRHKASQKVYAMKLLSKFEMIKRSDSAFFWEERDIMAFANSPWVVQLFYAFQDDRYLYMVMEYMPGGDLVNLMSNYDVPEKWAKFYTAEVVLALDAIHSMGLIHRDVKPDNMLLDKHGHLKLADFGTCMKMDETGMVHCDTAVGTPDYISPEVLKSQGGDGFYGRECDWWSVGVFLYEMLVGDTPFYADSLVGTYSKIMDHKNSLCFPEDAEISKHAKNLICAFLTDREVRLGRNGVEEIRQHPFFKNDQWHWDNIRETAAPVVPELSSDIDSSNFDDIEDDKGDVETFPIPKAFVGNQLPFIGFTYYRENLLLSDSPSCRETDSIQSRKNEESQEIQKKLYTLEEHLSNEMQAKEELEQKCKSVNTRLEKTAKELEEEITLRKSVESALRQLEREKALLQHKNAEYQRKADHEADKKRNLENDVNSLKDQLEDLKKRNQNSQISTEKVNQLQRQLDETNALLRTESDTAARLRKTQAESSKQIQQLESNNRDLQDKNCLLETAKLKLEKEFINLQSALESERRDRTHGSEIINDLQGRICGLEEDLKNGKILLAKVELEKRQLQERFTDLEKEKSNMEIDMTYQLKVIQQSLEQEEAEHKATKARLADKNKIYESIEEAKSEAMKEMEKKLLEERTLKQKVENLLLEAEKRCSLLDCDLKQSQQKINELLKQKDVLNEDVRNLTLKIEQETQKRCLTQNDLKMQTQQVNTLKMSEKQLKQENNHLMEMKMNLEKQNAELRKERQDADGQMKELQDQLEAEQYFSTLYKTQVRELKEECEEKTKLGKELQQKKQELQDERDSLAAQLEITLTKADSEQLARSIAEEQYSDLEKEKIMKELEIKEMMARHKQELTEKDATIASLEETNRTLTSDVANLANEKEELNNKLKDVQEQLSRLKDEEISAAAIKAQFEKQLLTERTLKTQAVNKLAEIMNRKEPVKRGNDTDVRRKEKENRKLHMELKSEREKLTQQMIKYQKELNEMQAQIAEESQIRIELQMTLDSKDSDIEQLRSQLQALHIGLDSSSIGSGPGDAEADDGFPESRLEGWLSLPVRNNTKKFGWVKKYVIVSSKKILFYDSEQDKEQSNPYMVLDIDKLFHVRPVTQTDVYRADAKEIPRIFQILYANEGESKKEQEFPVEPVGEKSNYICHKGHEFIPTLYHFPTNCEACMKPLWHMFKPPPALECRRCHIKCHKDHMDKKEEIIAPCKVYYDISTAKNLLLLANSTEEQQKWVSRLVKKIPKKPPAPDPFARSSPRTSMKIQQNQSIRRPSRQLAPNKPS
Chain of JAK2 (O60674 whole entry, species assumed, canonical isoform): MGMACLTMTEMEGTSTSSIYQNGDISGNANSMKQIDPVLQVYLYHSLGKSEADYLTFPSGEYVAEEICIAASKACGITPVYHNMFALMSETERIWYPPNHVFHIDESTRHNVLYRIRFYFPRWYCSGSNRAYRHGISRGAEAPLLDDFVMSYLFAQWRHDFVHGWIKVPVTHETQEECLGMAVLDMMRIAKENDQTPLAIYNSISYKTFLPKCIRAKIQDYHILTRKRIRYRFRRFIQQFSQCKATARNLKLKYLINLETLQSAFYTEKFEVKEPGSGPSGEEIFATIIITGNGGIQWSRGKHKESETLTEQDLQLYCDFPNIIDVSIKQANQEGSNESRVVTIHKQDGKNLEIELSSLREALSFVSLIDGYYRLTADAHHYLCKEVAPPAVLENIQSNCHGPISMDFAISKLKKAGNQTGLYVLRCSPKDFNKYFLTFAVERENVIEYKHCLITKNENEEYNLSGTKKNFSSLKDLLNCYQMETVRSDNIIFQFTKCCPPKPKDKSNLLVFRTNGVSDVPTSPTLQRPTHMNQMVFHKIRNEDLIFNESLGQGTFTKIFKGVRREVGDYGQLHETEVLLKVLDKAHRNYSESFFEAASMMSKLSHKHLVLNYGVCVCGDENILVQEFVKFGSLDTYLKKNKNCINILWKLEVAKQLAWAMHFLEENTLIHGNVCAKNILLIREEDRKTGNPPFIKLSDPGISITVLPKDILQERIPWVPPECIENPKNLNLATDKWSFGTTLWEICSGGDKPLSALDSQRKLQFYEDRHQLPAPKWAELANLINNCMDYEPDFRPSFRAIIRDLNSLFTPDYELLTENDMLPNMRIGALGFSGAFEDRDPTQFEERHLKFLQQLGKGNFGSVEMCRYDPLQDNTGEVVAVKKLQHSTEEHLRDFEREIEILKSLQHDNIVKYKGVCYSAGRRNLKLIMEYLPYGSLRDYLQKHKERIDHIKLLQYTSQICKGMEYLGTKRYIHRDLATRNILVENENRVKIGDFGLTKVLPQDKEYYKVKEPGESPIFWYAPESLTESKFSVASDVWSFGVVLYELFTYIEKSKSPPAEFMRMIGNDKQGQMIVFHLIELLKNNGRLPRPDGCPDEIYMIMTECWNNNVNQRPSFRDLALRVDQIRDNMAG

As to `O=C(Nc1ccc2cnccc2c1)[C@@H]1C[C@H]1c1ccc(S(=O)(=O)Nc2ccccn2)cc1` (racemic), the Ki in assay [1] (Table 17, read-out: JAK3) came out at 12 nM. Consider `O=C(Nc1ccc2cnccc2c1)[C@@H]1C[C@H]1c1ccc(S(=O)(=O)Nc2ccccc2)cc1` (racemic) [(rel)-(1R,2R)-N-(isoquinolin-6-yl)-2-(4-(N-phenylsulfamoyl)phenyl)cyclopropane-1-carboxamide], for which the Ki in assay [2] (ROCK1, Table 17) turned out to be 154 nM; in assay [3] (ROCK2, Table 17), 75 nM. `O=C(Nc1ccc2cncc(Cl)c2c1)[C@@H]1C[C@H]1c1ccc(S(=O)(=O)NC[C@@H]2CCCNC2)cc1` (relative stereo) [(rel)-(1R,2R)-N-(4-chloroisoquinolin-6-yl)-2-(4-(N-(((R)-piperidin-3-yl)methyl)sulfamoyl)phenyl)cyclopropane-1-carboxamide dihydrochloride]: in assay [1] (Table 17, read-out: JAK3), the Ki was 160 nM. For the compound `O=C(Nc1ccc2cnccc2c1)[C@@H]1C[C@H]1c1ccc(S(=O)(=O)NC[C@@H]2CCCNC2)cc1` (relative stereo) [(rel)-(1R,2R)-N-(isoquinolin-6-yl)-2-(4-(N-(((R)-piperidin-3-yl)methyl)sulfamoyl)phenyl) cyclopropane-1-carboxamide dihydrochloride], the Ki in assay [2] (ROCK1, Table 17) is 4 nM; in assay [3] (ROCK2, Table 17), 4 nM; in assay [1] (Table 17, read-out: JAK3) it was 1140 nM. Consider `O=C(Nc1ccc2cnccc2c1)[C@@H]1C[C@H]1c1ccc(S(=O)(=O)NC[C@H]2CCCNC2)cc1` (relative stereo) [(rel)-(1R,2R)-N-(isoquinolin-6-yl)-2-(4-(N-(((S)-piperidin-3-yl)methyl)sulfamoyl)phenyl) cyclopropane-1-carboxamide dihydrochloride], for which the Ki in assay [2] (ROCK1, Table 17) amounted to 5 nM; in assay [3] (ROCK2, Table 17) it was 5 nM. In the case of `O=C(Nc1ccc2cnccc2c1)[C@@H]1C[C@H]1c1ccc(S(=O)(=O)NC2CCNCC2)cc1` (relative stereo) [(rel)-(1R,2R)-N-(isoquinolin-6-yl)-2-(4-(N-(piperidin-4-yl)sulfamoyl)phenyl) cyclopropane-1-carboxamide dihydrochloride], the Ki in assay [2] (ROCK1, Table 17) was 8.2 nM; in assay [3] (ROCK2, Table 17), 7 nM. In the same order, the values of `O=C(Nc1ccc2cnccc2c1)[C@@H]1C[C@H]1c1ccc(S(=O)(=O)NCc2cccnc2)cc1` (relative stereo) [(rel)-(1R,2R)-N-(isoquinolin-6-yl)-2-(4-(N-(pyridin-3-ylmethyl)sulfamoyl)phenyl) cyclopropane-1-carboxamide] are 25 nM and 9 nM. As for `O=C(Nc1ccc2cnccc2c1)[C@@H]1C[C@H]1c1ccc(S(=O)(=O)N2CCNCC2)cc1` (relative stereo) [(rel)-(1R,2R)-N-(isoquinolin-6-yl)-2-(4-(piperazin-1-ylsulfonyl)phenyl) cyclopropane-1-carboxamide dihydrochloride], the Ki in assay [2] (ROCK1, Table 17) is 48 nM; in assay [3] (ROCK2, Table 17) it was 31 nM. As for `O=C(Nc1ccc2cnccc2c1)[C@@H]1C[C@H]1c1ccc(S(=O)(=O)NCC2CCNCC2)cc1` (relative stereo) [drawing 663, (rel)-(1R,2R)-N-(isoquinolin-6-yl)-2-(4-(N-(piperidin-4-ylmethyl)sulfamoyl)phenyl) cyclopropane-1-carboxamide dihydrochloride], the Ki in assay [2] (ROCK1, Table 17) amounted to 9 nM; in assay [3] (ROCK2, Table 17) it was 8 nM. Regarding `O=C(Nc1ccc2cnccc2c1)[C@@H]1C[C@H]1c1ccc(I)cc1` (relative stereo) [drawing 670, (rel)-(1R,2R)-2-(4-iodophenyl)-N-(isoquinolin-6-yl)cyclopropane-1-carboxamide], the Ki in assay [4] (Table 17, read-out: JAK2) was 650 nM; in assay [2] (ROCK1, Table 17) it was 270 nM; in assay [3] (ROCK2, Table 17) it was 175 nM. Turning to `O=C(Nc1ccc2cnccc2c1)[C@@H]1C[C@H]1c1ccc(S(=O)(=O)Nc2ccccn2)cc1` (single isomer, unassigned) [Example E266], the Ki in assay [2] (ROCK1, Table 16) is 9 nM; in assay [1] (Table 16, read-out: JAK3), 12 nM. For `O=C(Nc1ccc2cnccc2c1)[C@@H]1C[C@H]1c1ccc(S(=O)(=O)Nc2ccccn2)cc1` (single isomer, unassigned) [Example E267], in assay [1] (Table 16, read-out: JAK3), the Ki came to 5.8 nM. Take `O=C(NCc1ccccn1)c1ccc(C2CC(=O)N(c3ccc4cnccc4c3)C2)cc1` (stereo not drawn) [Example E233]: the Ki lay in the range of 5800 to 13500 nM in assay [4] (Table 15, in brackets in the activity cell, read-out: JAK2 activity); 4350 to 8400 nM in assay [5]; 3400 to 3800 nM in assay [1] (Table 15, in brackets in the activity cell, read-out: JAK3 activity). Turning to `O=C(Nc1ccc2cnccc2c1)[C@@H]1C[C@H]1c1ccc(S(=O)(=O)Nc2ccccc2)cc1` [Example E265], the Ki is 154 nM in assay [2] (ROCK1, Table 16) and 75 nM in assay [3] (ROCK2, Table 16). Consider `O=C(Nc1ccc2cnccc2c1)[C@@H]1C[C@H]1c1ccc(S(=O)(=O)Nc2cccnc2)cc1` [Example E268], for which the Ki in assay [2] (ROCK1, Table 16) worked out at 85 nM; in assay [3] (ROCK2, Table 16), 24 nM.

As for `O=C(Nc1ccc2cnccc2c1)[C@@H]1C[C@H]1c1ccc(S(=O)(=O)NCc2cccnc2)cc1` [Example E269], the Ki turned out to be 25 nM in assay [2] (ROCK1, Table 16) and 9 nM in assay [3] (ROCK2, Table 16). In the same order, the values of `O=C(Nc1ccc2cnccc2c1)[C@@H]1C[C@H]1c1ccc(S(=O)(=O)NCC2CCNCC2)cc1` [Example E271] are 9 nM and 8 nM. In the same order, the values of `O=C(Nc1ccc2cnccc2c1)[C@@H]1C[C@H]1c1ccc(S(=O)(=O)NC[C@H]2CCCNC2)cc1` [Example E272] are 5 nM and 5 nM. Regarding `O=C(Nc1ccc2cnccc2c1)[C@@H]1C[C@H]1c1ccc(S(=O)(=O)NC[C@@H]2CCCNC2)cc1` [Example E273], the Ki is 4 nM in assay [2] (ROCK1, Table 16); 4 nM in assay [3] (ROCK2, Table 16); 1140 nM in assay [1] (Table 16, read-out: JAK3). As to `O=C(Nc1ccc2cncc(Cl)c2c1)[C@@H]1C[C@H]1c1ccc(S(=O)(=O)NC[C@@H]2CCCNC2)cc1` [Example E274], the Ki in assay [1] (Table 16, read-out: JAK3) was determined as 160 nM. As for `O=C(Nc1ccc2cnccc2c1)[C@@H]1C[C@H]1c1ccc(S(=O)(=O)NC2CCNCC2)cc1` [Example E275], the Ki in assay [2] (ROCK1, Table 16) was 8.2 nM; in assay [3] (ROCK2, Table 16), 7 nM. For `O=C(Nc1ccc2cnccc2c1)[C@@H]1C[C@H]1c1ccc(S(=O)(=O)N2CCNCC2)cc1` [Example E276], the Ki in assay [2] (ROCK1, Table 16) worked out at 48 nM; in assay [3] (ROCK2, Table 16) it was 31 nM. For the compound `O=C(Nc1ccc2cnccc2c1)[C@@H]1C[C@H]1c1ccc(I)cc1` [Example E277], the Ki is 650 nM in assay [4] (Table 16, read-out: JAK2); 270 nM in assay [2] (ROCK1, Table 16); 175 nM in assay [3] (ROCK2, Table 16). Compound `O=C(Nc1ccc2cnccc2c1)[C@@H]1C[C@H]1c1cccc(S(=O)(=O)Nc2ccccn2)c1` [Example E279] showed a Ki in assay [2] (ROCK1, Table 16) of 11 nM. Regarding `O=C(Nc1ccc2cnccc2c1)[C@@H]1C[C@H]1c1ccc(S(=O)(=O)Nc2cccnc2)cc1` [drawing 658], the Ki in assay [2] (ROCK1, Table 17) was determined as 85 nM; in assay [3] (ROCK2, Table 17), 24 nM.

For `O=C(Nc1ccc2cncc(Cl)c2c1)[C@@H]1C[C@H]1c1ccc(S(=O)(=O)NC[C@@H]2CCCNC2)cc1` [drawing 666], the Ki in assay [1] (Table 17, read-out: JAK3) was 160 nM.

Source of the values: patent publication US10858339B2, “Aryl cyclopropyl-amino-isoquinolinyl amide compounds” (priority 2017, dated 2020).
